Test results as given in ChEMBL document CHEMBL1201862, “PubChem BioAssay data set” (2004).
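Each compound was tested at five concentrations against cells in 96-well plates for 48 hours. The concentration for 50% growth inhibition is given as GI50.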 The source made the active and inactive calls. No stated cut-off is given here; in the data, active = GI50 up to about 1.1 µM and inactive = higher.

Key:
Assay in all cases: inhibition of tumour cell growth, NCI panel, 48 h
CCRF-CEM = test system: CCRF-CEM
SF-268 = test system: SF-268
UO-31 = test system: UO-31
MCF7 = test system: MCF7
COLO 205 = test system: COLO 205
RPMI-8226 = test system: RPMI-8226
NCI-H522 = test system: NCI-H522
HL-60 = test system: HL-60
Malme-3M = test system: Malme-3M
OVCAR-3 = test system: OVCAR-3
MDA-MB-231 = test system: MDA-MB-231
NCI-H460 = test system: NCI-H460
T47D = test system: T47D
OVCAR-5 = test system: OVCAR-5
HCT-116 = test system: HCT-116
SK-MEL-5 = test system: SK-MEL-5
SN12C = test system: SN12C
SK-MEL-28 = test system: SK-MEL-28
SNB-19 = test system: SNB-19
SNB-75 = test system: SNB-75
NCI/ADR-RES = test system: NCI/ADR-RES
CAKI-1 = test system: CAKI-1
EKVX = test system: EKVX
HOP-92 = test system: HOP-92
Hs-578T = test system: Hs-578T
SK-OV-3 = test system: SK-OV-3
UACC-257 = test system: UACC-257
OVCAR-8 = test system: OVCAR-8
786-0 = test system: 786-0
U-251 = test system: U-251
OVCAR-4 = test system: OVCAR-4
KM12 = test system: KM12
HCC 2998 = test system: HCC 2998
DU-145 = test system: DU-145
MDA-N = test system: MDA-N
HT-29 = test system: HT-29
HOP-62 = test system: HOP-62
SW-620 = test system: SW-620
MOLT-4 = test system: MOLT-4
UACC-62 = test system: UACC-62
SK-MEL-2 = test system: SK-MEL-2
IGROV-1 = test system: IGROV-1
BT-549 = test system: BT-549
HCT-15 = test system: HCT-15
PC-3 = test system: PC-3
M14 = test system: M14
MDA-MB-435 = test system: MDA-MB-435
SF-295 = test system: SF-295
TK-10 = test system: TK-10
NCI-H23 = test system: NCI-H23
ACHN = test system: ACHN
A549 = test system: A549
A498 = test system: A498
RXF 393 = test system: RXF 393
K562 = test system: K562
LOX IMVI = test system: LOX IMVI
NCI-H226 = test system: NCI-H226
SF-539 = test system: SF-539

SMILES: O=C1NC(NNc2ccccc2)=N/C1=C\c1ccco1
- GI50 (CCRF-CEM): 4.61 µM (inactive)
- GI50 (SF-268): 22.4 µM (inactive)
- GI50 (UO-31): 27.8 µM (inactive)
- GI50 (MCF7): 15.5 µM (inactive)
- GI50 (COLO 205): 12.6 µM (inactive)
- GI50 (RPMI-8226): 16.3 µM (inactive)
- GI50 (NCI-H522): 12.9 µM (inactive)
- GI50 (HL-60): 20.3 µM (inactive)
- GI50 (Malme-3M): 28.1 µM (inactive)
- GI50 (OVCAR-3): 17.5 µM (inactive)
- GI50 (MDA-MB-231): 20 µM (inactive)
- GI50 (NCI-H460): 22.4 µM (inactive)
- GI50 (T47D): 14 µM (inactive)
- GI50 (OVCAR-5): 37.7 µM (inactive)
- GI50 (HCT-116): 14.3 µM (inactive)
- GI50 (SK-MEL-5): 25.5 µM (inactive)
- GI50 (SN12C): 22.1 µM (inactive)
- GI50 (SK-MEL-28): 25.4 µM (inactive)
- GI50 (SNB-19): 43.5 µM (inactive)
- GI50 (SNB-75): 24.7 µM (inactive)
- GI50 (NCI/ADR-RES): 26.2 µM (inactive)
- GI50 (CAKI-1): 14.3 µM (inactive)
- GI50 (EKVX): 18.7 µM (inactive)
- GI50 (HOP-92): 14.8 µM (inactive)
- GI50 (Hs-578T): 26.2 µM (inactive)
- GI50 (SK-OV-3): > 100 µM (inactive)
- GI50 (UACC-257): 21.1 µM (inactive)
- GI50 (OVCAR-8): 17.6 µM (inactive)
- GI50 (786-0): 17.4 µM (inactive)
- GI50 (U-251): 17.7 µM (inactive)
- GI50 (OVCAR-4): 14.6 µM (inactive)
- GI50 (KM12): 11.2 µM (inactive)
- GI50 (HCC 2998): 17.6 µM (inactive)
- GI50 (DU-145): 17.5 µM (inactive)
- GI50 (MDA-N): 26.9 µM (inactive)
- GI50 (HT-29): 18.6 µM (inactive)
- GI50 (HOP-62): 33.9 µM (inactive)
- GI50 (SW-620): 18.1 µM (inactive)
- GI50 (MOLT-4): 30.1 µM (inactive)
- GI50 (UACC-62): 4.29 µM (inactive)
- GI50 (SK-MEL-2): 12.9 µM (inactive)
- GI50 (IGROV-1): 15.7 µM (inactive)
- GI50 (BT-549): 21.2 µM (inactive)
- GI50 (HCT-15): 16 µM
- GI50 (PC-3): 19.3 µM (inactive)
- GI50 (M14): 8.47 µM (inactive)
- GI50 (MDA-MB-435): 12.4 µM (inactive)
- GI50 (SF-295): 39.5 µM (inactive)
- GI50 (TK-10): 18.3 µM (inactive)
- GI50 (NCI-H23): 18.8 µM (inactive)
- GI50 (ACHN): 13.2 µM (inactive)
- GI50 (A549): 46.5 µM (inactive)
- GI50 (A498): 46.8 µM (inactive)
- GI50 (RXF 393): 13.4 µM (inactive)

SMILES: O=C1/C(=C/c2cccc([N+](=O)[O-])c2)N=C(c2ccccc2)N1c1ccc2c(c1)Sc1cc(N3C(=O)/C(=C/c4cccc([N+](=O)[O-])c4)N=C3c3ccccc3)ccc1N2
- GI50 (CCRF-CEM): 16.9 µM (inactive)
- GI50 (SF-268): 20.1 µM (inactive)
- GI50 (UO-31): 53.3 µM (inactive)
- GI50 (MCF7): 19.2 µM (inactive)
- GI50 (COLO 205): 40.9 µM (inactive)
- GI50 (RPMI-8226): 26.7 µM (inactive)
- GI50 (NCI-H522): 19.1 µM (inactive)
- GI50 (HL-60): 21.6 µM (inactive)
- GI50 (Malme-3M): 21.4 µM (inactive)
- GI50 (OVCAR-3): 12.6 µM (inactive)
- GI50 (MDA-MB-231): 29.1 µM (inactive)
- GI50 (NCI-H460): 41.9 µM (inactive)
- GI50 (K562): 27.3 µM (inactive)
- GI50 (T47D): 25.4 µM (inactive)
- GI50 (OVCAR-5): 18.5 µM (inactive)
- GI50 (HCT-116): 42.8 µM (inactive)
- GI50 (SK-MEL-5): 17.3 µM (inactive)
- GI50 (LOX IMVI): 27 µM (inactive)
- GI50 (SK-MEL-28): 47.9 µM (inactive)
- GI50 (SNB-19): 21.2 µM (inactive)
- GI50 (SNB-75): 16.7 µM (inactive)
- GI50 (NCI/ADR-RES): 34.1 µM (inactive)
- GI50 (CAKI-1): 22.4 µM (inactive)
- GI50 (EKVX): 25.4 µM (inactive)
- GI50 (HOP-92): 28.1 µM (inactive)
- GI50 (Hs-578T): 30.2 µM (inactive)
- GI50 (SK-OV-3): 16.4 µM (inactive)
- GI50 (UACC-257): 18.4 µM (inactive)
- GI50 (OVCAR-8): 29.2 µM (inactive)
- GI50 (786-0): 21 µM (inactive)
- GI50 (U-251): 24.7 µM (inactive)
- GI50 (OVCAR-4): 18.7 µM (inactive)
- GI50 (KM12): > 100 µM (inactive)
- GI50 (HCC 2998): > 100 µM (inactive)
- GI50 (DU-145): 36.7 µM (inactive)
- GI50 (MDA-N): 19.3 µM (inactive)
- GI50 (HT-29): 91.8 µM (inactive)
- GI50 (HOP-62): 20 µM (inactive)
- GI50 (SW-620): 31.2 µM (inactive)
- GI50 (MOLT-4): 36.9 µM (inactive)
- GI50 (UACC-62): 17 µM (inactive)
- GI50 (SK-MEL-2): 20 µM (inactive)
- GI50 (IGROV-1): 20.1 µM (inactive)
- GI50 (BT-549): 23 µM (inactive)
- GI50 (HCT-15): > 100 µM
- GI50 (PC-3): 22 µM (inactive)
- GI50 (M14): 32.9 µM (inactive)
- GI50 (MDA-MB-435): 18.7 µM (inactive)
- GI50 (SF-295): 14 µM (inactive)
- GI50 (TK-10): 19.6 µM (inactive)
- GI50 (NCI-H23): 30.8 µM (inactive)
- GI50 (ACHN): 30.9 µM (inactive)
- GI50 (A549): 53 µM (inactive)
- GI50 (A498): 23.6 µM (inactive)
- GI50 (RXF 393): 21.6 µM (inactive)

SMILES: ON=C1CCCCC(=NO)CCCC1
- GI50 (SF-268): > 100 µM (inactive)
- GI50 (NCI-H226): > 100 µM (inactive)
- GI50 (UO-31): > 100 µM (inactive)
- GI50 (MCF7): > 100 µM (inactive)
- GI50 (COLO 205): > 100 µM (inactive)
- GI50 (RPMI-8226): > 100 µM (inactive)
- GI50 (NCI-H522): > 100 µM (inactive)
- GI50 (SF-539): > 100 µM (inactive)
- GI50 (Malme-3M): > 100 µM (inactive)
- GI50 (MDA-MB-231): > 100 µM (inactive)
- GI50 (NCI-H460): > 100 µM (inactive)
- GI50 (K562): > 100 µM (inactive)
- GI50 (T47D): > 100 µM (inactive)
- GI50 (HCT-116): > 100 µM (inactive)
- GI50 (SK-MEL-5): > 100 µM (inactive)
- GI50 (LOX IMVI): > 100 µM (inactive)
- GI50 (SN12C): > 100 µM (inactive)
- GI50 (SK-MEL-28): > 100 µM (inactive)
- GI50 (SNB-19): > 100 µM (inactive)
- GI50 (SNB-75): > 100 µM (inactive)
- GI50 (NCI/ADR-RES): > 100 µM (inactive)
- GI50 (CAKI-1): > 100 µM (inactive)
- GI50 (HOP-92): > 100 µM (inactive)
- GI50 (Hs-578T): > 100 µM (inactive)
- GI50 (SK-OV-3): > 100 µM (inactive)
- GI50 (UACC-257): > 100 µM (inactive)
- GI50 (OVCAR-8): > 100 µM (inactive)
- GI50 (786-0): > 100 µM (inactive)
- GI50 (U-251): > 100 µM (inactive)
- GI50 (OVCAR-4): > 100 µM (inactive)
- GI50 (KM12): > 100 µM (inactive)
- GI50 (HCC 2998): > 100 µM (inactive)
- GI50 (DU-145): > 100 µM (inactive)
- GI50 (MDA-N): > 100 µM (inactive)
- GI50 (HT-29): > 100 µM (inactive)
- GI50 (SW-620): > 100 µM (inactive)
- GI50 (UACC-62): > 100 µM (inactive)
- GI50 (SK-MEL-2): > 100 µM (inactive)
- GI50 (BT-549): > 100 µM (inactive)
- GI50 (HCT-15): > 100 µM
- GI50 (PC-3): > 100 µM (inactive)
- GI50 (MDA-MB-435): > 100 µM (inactive)
- GI50 (SF-295): > 100 µM (inactive)
- GI50 (TK-10): > 100 µM (inactive)
- GI50 (NCI-H23): > 100 µM (inactive)
- GI50 (ACHN): > 100 µM (inactive)
- GI50 (A549): > 100 µM (inactive)
- GI50 (A498): > 100 µM (inactive)
